Laboratory results reported in ChEMBL document CHEMBL1201861, “Genomics of Drug Sensitity in Cancer screening data, Wellcome Trust Sanger Institute”.

How the values were obtained:
[1] = system: NCI-H1436; experiment: cells; format: functional, cell-based, Homo sapiens; conditions: Homo sapiens, NCI-H1436;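 also: growth suppression of human NCI-H1436 cells, determined with a cell viability readout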
Description: SANGER: Inhibition of human NCI-H1436 cell growth in a cell viability assay.

[2] = system: BC1 cell line; experiment: SANGER: Inhibition of human BC-1 cell growth in a cell viability assay.; format: functional, cell-based; conditions: Homo sapiens, BC1
[3] = system: KARPAS-422; experiment: cells; format: functional, cell-based, Homo sapiens; conditions: Homo sapiens, KARPAS-422
Description: SANGER: Inhibition of human KARPAS-422 cell growth in a cell viability assay.

[4] = system: NB14; experiment: cells; format: functional, cell-based, Homo sapiens; conditions: Homo sapiens, NB14;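 also: growth inhibition of NB14 cells measured with a cell viability assay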
Description: SANGER: Inhibition of human NB14 cell growth in a cell viability assay.

[5] = system: NCI-H1694; experiment: cells; format: functional, cell-based, Homo sapiens; conditions: Homo sapiens, NCI-H1694;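 also: cell viability assay measuring inhibition of growth in human NCI-H1694 cells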
Description: SANGER: Inhibition of human NCI-H1694 cell growth in a cell viability assay.

[6] = system: DG-75; experiment: cells; format: functional, cell-based, Homo sapiens; conditions: Homo sapiens, DG-75;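 also: growth inhibition of DG-75 cells, read out with a cell viability assay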
Description: SANGER: Inhibition of human DG-75 cell growth in a cell viability assay.

[7] = system: LOUCY; experiment: cells; format: functional, cell-based, Homo sapiens; conditions: Homo sapiens, LOUCY;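 also: growth inhibition of human LOUCY cells, read out with a cell viability assay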
Description: SANGER: Inhibition of human LOUCY cell growth in a cell viability assay.

[8] = system: SNU-16; experiment: cells; format: functional, cell-based, Homo sapiens; conditions: Homo sapiens, SNU-16;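 also: growth inhibition of human SNU-16 cells, determined with a cell viability readout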
Description: SANGER: Inhibition of human NCI-SNU-16 cell growth in a cell viability assay.

[9] = system: RMG-I; experiment: cells; format: functional, cell-based, Homo sapiens; conditions: Homo sapiens, RMG-I;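 also: growth inhibition of human RMG-I cells, read out with a cell viability assay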
Description: SANGER: Inhibition of human RMG-I cell growth in a cell viability assay.

[10] = system: NCI-H596; experiment: cells; format: functional, cell-based, Homo sapiens; conditions: Homo sapiens, NCI-H596;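 also: growth inhibition of NCI-H596 cells, read out with a cell viability assay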
Description: SANGER: Inhibition of human NCI-H596 cell growth in a cell viability assay.

[11] = system: NCI-H810; experiment: cells; format: functional, cell-based, Homo sapiens; conditions: Homo sapiens, NCI-H810;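 also: IC50 reflects inhibition of cancer cell line growth, read out with a cell viability assay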
Description: SANGER: Inhibition of human NCI-H810 cell growth in a cell viability assay.

[12] = system: Calu-3; experiment: cells; format: functional, cell-based, Homo sapiens; conditions: Homo sapiens, Calu-3;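 also: growth inhibition of human Calu-3 cells, determined with a cell viability assay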
Description: SANGER: Inhibition of human Calu-3 cell growth in a cell viability assay.

[13] = system: JEG-3; experiment: cells; format: functional, cell-based, Homo sapiens; conditions: Homo sapiens, JEG-3;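 also: growth inhibition of human JEG-3 cells, read out with a cell viability assay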
Description: SANGER: Inhibition of human JEG-3 cell growth in a cell viability assay.

[14] = system: P12-Ichikawa; experiment: cells; format: functional, cell-based, Homo sapiens; conditions: Homo sapiens, P12-Ichikawa
[15] = system: UMC-11; experiment: cells; format: functional, cell-based, Homo sapiens; conditions: Homo sapiens, UMC-11;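 also: growth inhibition of UMC-11 cells, read out with a cell viability assay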
Description: SANGER: Inhibition of human UMC-11 cell growth in a cell viability assay.

[16] = system: NCI-H2122; experiment: cells; format: functional, cell-based, Homo sapiens; conditions: Homo sapiens, NCI-H2122;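 also: growth inhibition of the cells, read out with a cell viability assay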
Description: SANGER: Inhibition of human NCI-H2122 cell growth in a cell viability assay.

[17] = system: CAMA-1; experiment: cells; format: functional, cell-based, Homo sapiens; conditions: Homo sapiens, CAMA-1;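 also: growth inhibition of CAMA-1 cells, read out with a cell viability assay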
Description: SANGER: Inhibition of human CAMA-1 cell growth in a cell viability assay.

[18] = system: NCI-H1573; experiment: cells; format: functional, cell-based, Homo sapiens; conditions: Homo sapiens, NCI-H1573;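 also: growth inhibition of NCI-H1573 cells, read out with a cell viability assay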
Description: SANGER: Inhibition of human NCI-H1573 cell growth in a cell viability assay.

[19] = system: HLE; experiment: cells; format: functional, cell-based, Homo sapiens; conditions: Homo sapiens, HLE;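 also: growth inhibition of human HLE cells, read out by a cell viability assay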
Description: SANGER: Inhibition of human HLE cell growth in a cell viability assay.

[20] = system: AGS; experiment: cells; format: functional, cell-based, Homo sapiens; conditions: Homo sapiens, AGS;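 also: growth inhibition of AGS cells, determined with a cell viability assay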
Description: SANGER: Inhibition of human AGS cell growth in a cell viability assay.

[21] = system: SK-LU-1; experiment: cells; format: functional, cell-based, Homo sapiens; conditions: Homo sapiens, SK-LU-1;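 also: cell viability assay measuring growth inhibition of human SK-LU-1 cells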
Description: SANGER: Inhibition of human SK-LU-1 cell growth in a cell viability assay.

[22] = system: SK-N-AS; experiment: cells; format: functional, cell-based, Homo sapiens; conditions: Homo sapiens, SK-N-AS;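 also: growth inhibition of human SK-N-AS cells, measured with a cell viability assay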
Description: SANGER: Inhibition of human SK-N-AS cell growth in a cell viability assay.

[23] = system: T84; experiment: cells; format: functional, cell-based, Homo sapiens; conditions: Homo sapiens, T84;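 also: growth inhibition measured with a cell viability readout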
Description: SANGER: Inhibition of human T84 cell growth in a cell viability assay.

[24] = system: BEN; experiment: cells; format: functional, cell-based, Homo sapiens; conditions: Homo sapiens, BEN;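 also: growth inhibition of the BEN cell line, read out with a cell viability assay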
Description: SANGER: Inhibition of human BEN cell growth in a cell viability assay.

[25] = system: NCI-H441; experiment: cells; format: functional, cell-based, Homo sapiens; conditions: Homo sapiens, NCI-H441;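 also: growth inhibition of NCI-H441 cells, read out with a cell viability assay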
Description: SANGER: Inhibition of human NCI-H441 cell growth in a cell viability assay.

[26] = system: MFE-280; experiment: cells; format: functional, cell-based, Homo sapiens; conditions: Homo sapiens, MFE-280;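 also: growth inhibition of MFE-280 cells, determined with a cell viability readout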
Description: SANGER: Inhibition of human MFE-280 cell growth in a cell viability assay.

[27] = system: HT-29; experiment: cells; format: functional, cell-based, Homo sapiens; conditions: Homo sapiens, HT-29;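 also: growth inhibition of human HT-29 cells, read out by a cell viability assay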
Description: SANGER: Inhibition of human HT-29 cell growth in a cell viability assay.

[28] = system: BFTC-905; experiment: cells; format: functional, cell-based, Homo sapiens; conditions: Homo sapiens, BFTC-905
Description: SANGER: Inhibition of human BFTC-905 cell growth in a cell viability assay.

[29] = system: HCT-15; experiment: cells; format: functional, cell-based, Homo sapiens; conditions: Homo sapiens, HCT-15;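 also: cell viability readout, IC50 reflecting suppression of HCT-15 cell growth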
Description: SANGER: Inhibition of human HCT-15 cell growth in a cell viability assay.

[30] = system: UACC-62; experiment: cells; format: functional, cell-based, Homo sapiens; conditions: Homo sapiens, UACC-62;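 also: growth inhibition of human UACC-62 cells, read out by a cell viability assay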
Description: SANGER: Inhibition of human UACC-62 cell growth in a cell viability assay.

[31] = system: SAS; experiment: cells; format: functional, cell-based, Homo sapiens; conditions: Homo sapiens, SAS;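 also: growth inhibition of SAS cells, read out with a cell viability assay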
Description: SANGER: Inhibition of human SAS cell growth in a cell viability assay.

[32] = system: AU565; experiment: cells; format: functional, cell-based, Homo sapiens; conditions: Homo sapiens, AU565;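 also: cell viability assay measuring growth inhibition of human AU565 cells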
Description: SANGER: Inhibition of human AU565 cell growth in a cell viability assay.

[33] = system: SW1088; experiment: cells; format: functional, cell-based, Homo sapiens; conditions: Homo sapiens, SW1088;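 also: growth inhibition of human SW1088 cells, read out by a cell viability assay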
Description: SANGER: Inhibition of human SW1088 cell growth in a cell viability assay.

[34] = system: HT55; experiment: cells; format: functional, cell-based, Homo sapiens; conditions: Homo sapiens, HT55;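 also: cell viability readout measuring growth inhibition of human HT55 cells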
Description: SANGER: Inhibition of human HT55 cell growth in a cell viability assay.

[35] = system: COR-L105; experiment: cells; format: functional, cell-based, Homo sapiens; conditions: Homo sapiens, COR-L105
Description: SANGER: Inhibition of human COR-L105 cell growth in a cell viability assay.

[36] = system: NCI-H2009; experiment: cells; format: functional, cell-based, Homo sapiens; conditions: Homo sapiens, NCI-H2009;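 also: cell viability assay measuring inhibition of NCI-H2009 cell growth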
Description: SANGER: Inhibition of human NCI-H2009 cell growth in a cell viability assay.

[37] = system: NCI-H2342; experiment: cells; format: functional, cell-based, Homo sapiens; conditions: Homo sapiens, NCI-H2342;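 also: growth inhibition of the cancer cell line, determined with a cell viability assay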
Description: SANGER: Inhibition of human NCI-H2342 cell growth in a cell viability assay.

[38] = system: SW948; experiment: cells; format: functional, cell-based, Homo sapiens; conditions: Homo sapiens, SW948;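 also: growth inhibition of SW948 cells, read out with a cell viability assay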
Description: SANGER: Inhibition of human SW948 cell growth in a cell viability assay.

[39] = system: CAL-72; experiment: cells; format: functional, cell-based, Homo sapiens; conditions: Homo sapiens, CAL-72;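 also: cell viability assay measuring inhibition of proliferation in the CAL-72 cell line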
Description: SANGER: Inhibition of human CAL-72 cell growth in a cell viability assay.

[40] = system: NCI-H661; experiment: cells; format: functional, cell-based, Homo sapiens; conditions: Homo sapiens, NCI-H661;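 also: cell viability assay read-out, IC50 being the concentration that inhibits growth of the cells by half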
Description: SANGER: Inhibition of human NCI-H661 cell growth in a cell viability assay.

[41] = system: NCI-H1993; experiment: cells; format: functional, cell-based, Homo sapiens; conditions: Homo sapiens, NCI-H1993;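 also: growth inhibition of the cancer cell line, assessed with a cell viability assay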
Description: SANGER: Inhibition of human NCI-H1993 cell growth in a cell viability assay.

[42] = system: HT-1376; experiment: cells; format: functional, cell-based, Homo sapiens; conditions: Homo sapiens, HT-1376
Description: SANGER: Inhibition of human HT-1376 cell growth in a cell viability assay.

[43] = system: RO82-W-1; experiment: cells; format: functional, cell-based, Homo sapiens; conditions: Homo sapiens, RO82-W-1;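 also: growth inhibition of human RO82-W-1 cells, measured with a cell viability assay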
Description: SANGER: Inhibition of human RO82-W-1 cell growth in a cell viability assay.

[44] = system: HSC-2; experiment: cells; format: functional, cell-based, Homo sapiens; conditions: Homo sapiens, HSC-2;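 also: growth inhibition of human HSC-2 cells, read out by a cell viability assay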
Description: SANGER: Inhibition of human HSC-2 cell growth in a cell viability assay.

[45] = system: RPMI-7951; experiment: cells; format: functional, cell-based, Homo sapiens; conditions: Homo sapiens, RPMI-7951
Description: SANGER: Inhibition of human RPMI-7951 cell growth in a cell viability assay.

[46] = system: NCI-H1792; experiment: cells; format: functional, cell-based, Homo sapiens; conditions: Homo sapiens, NCI-H1792;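 also: growth inhibition of human NCI-H1792 cells, read out as cell viability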
Description: SANGER: Inhibition of human NCI-H1792 cell growth in a cell viability assay.

SMILES: COc1cc2ncn(-c3cc(OCc4ccccc4C(F)(F)F)c(C(N)=O)s3)c2cc1OC [GW843682X]
- IC50 [1]: > 256 nM
- IC50 [2]: 244 nM
- IC50 [3]: 210 nM
- IC50 [4]: > 256 nM
- IC50 [5]: 42 nM
- IC50 [6]: 63.3 nM
- IC50 [7]: 15.9 nM
- IC50 [8]: 20.5 nM

SMILES: CCC/C=C/C=C/C(=O)O[C@H]1/C(=C/C(=O)OC)C[C@H]2C[C@H]([C@@H](C)O)OC(=O)C[C@H](O)C[C@@H]3C[C@H](OC(C)=O)C(C)(C)[C@](O)(C[C@@H]4C/C(=C/C(=O)OC)C[C@H](/C=C/C(C)(C)[C@]1(O)O2)O4)O3 [BRYOSTATIN 1]
- IC50 [9]: > 8 nM
- IC50 [10]: > 8 nM
- IC50 [1]: > 8 nM
- IC50 [11]: > 8 nM
- IC50 [2]: > 8 nM
- IC50 [12]: > 8 nM
- IC50 [13]: > 8 nM
- IC50 [3]: > 8 nM
- IC50 [14]: > 8 nM
- IC50 [15]: > 8 nM
- IC50 [16]: > 8 nM
- IC50 [17]: > 8 nM
- IC50 [18]: 2.36 nM
- IC50 [19]: > 8 nM
- IC50 [20]: > 8 nM
- IC50 [21]: > 8 nM
- IC50 [22]: > 8 nM
- IC50 [23]: > 8 nM
- IC50 [24]: > 8 nM
- IC50 [25]: > 8 nM
- IC50 [26]: > 8 nM
- IC50 [27]: > 8 nM
- IC50 [28]: > 8 nM
- IC50 [5]: > 8 nM
- IC50 [29]: > 8 nM
- IC50 [30]: > 8 nM
- IC50 [31]: > 8 nM
- IC50 [6]: > 8 nM
- IC50 [32]: > 8 nM
- IC50 [33]: > 8 nM
- IC50 [34]: > 8 nM
- IC50 [35]: > 8 nM
- IC50 [36]: > 8 nM
- IC50 [37]: > 8 nM
- IC50 [38]: > 8 nM
- IC50 [39]: > 8 nM
- IC50 [7]: > 8 nM
- IC50 [40]: > 8 nM
- IC50 [41]: > 8 nM
- IC50 [42]: > 8 nM
- IC50 [43]: > 8 nM
- IC50 [44]: > 8 nM
- IC50 [8]: > 8 nM
- IC50 [45]: > 8 nM
- IC50 [46]: > 8 nM

SMILES: N#Cc1c(O)c2c(-c3ccc(-c4ccccc4O)cc3)csc2[nH]c1=O
- IC50 [9]: > 1020 nM
- IC50 [10]: > 1020 nM
- IC50 [1]: 590 nM
- IC50 [11]: > 1020 nM
- IC50 [2]: 69.7 nM
- IC50 [12]: > 1020 nM
- IC50 [13]: > 1020 nM
- IC50 [3]: 344 nM
- IC50 [14]: 489 nM
- IC50 [15]: > 1020 nM
- IC50 [16]: > 1020 nM
- IC50 [17]: > 1020 nM
- IC50 [19]: > 1020 nM
- IC50 [20]: > 1020 nM
- IC50 [21]: > 1020 nM
- IC50 [22]: > 1020 nM
- IC50 [23]: > 1020 nM
- IC50 [24]: > 1020 nM
- IC50 [25]: > 1020 nM
- IC50 [26]: > 1020 nM
- IC50 [27]: > 1020 nM
- IC50 [28]: > 1020 nM
- IC50 [5]: 977 nM
- IC50 [29]: > 1020 nM
- IC50 [30]: > 1020 nM
- IC50 [31]: > 1020 nM
- IC50 [6]: > 1020 nM
- IC50 [32]: > 1020 nM
- IC50 [33]: > 1020 nM
- IC50 [34]: > 1020 nM
- IC50 [35]: > 1020 nM
- IC50 [36]: > 1020 nM
- IC50 [37]: > 1020 nM
- IC50 [38]: > 1020 nM
- IC50 [39]: > 1020 nM
- IC50 [7]: 96.4 nM
- IC50 [40]: > 1020 nM
- IC50 [41]: > 1020 nM
- IC50 [42]: > 1020 nM
- IC50 [43]: > 1020 nM
- IC50 [44]: > 1020 nM
- IC50 [8]: > 1020 nM
- IC50 [45]: > 1020 nM
- IC50 [46]: > 1020 nM

SMILES: Cc1ccc(-c2c(C(=O)CCl)n(CCCO)c3ncnc(N)c23)cc1
- IC50 [1]: > 4000 nM
- IC50 [2]: > 4000 nM
- IC50 [3]: > 4000 nM
- IC50 [4]: > 4000 nM
- IC50 [5]: > 4000 nM
- IC50 [6]: > 4000 nM
- IC50 [7]: > 4000 nM
- IC50 [8]: > 4000 nM

SMILES: C#Cc1cccc(Nc2ncnc3cc(OCCOC)c(OCCOC)cc23)c1 [ERLOTINIB]
- IC50 [2]: > 2000 nM
- IC50 [3]: > 2000 nM
- IC50 [4]: > 2000 nM
- IC50 [5]: > 2000 nM
- IC50 [6]: > 2000 nM
- IC50 [7]: > 2000 nM
- IC50 [8]: > 2000 nM

SMILES: COc1cc2ncn(-c3cc(OCc4ccccc4S(C)(=O)=O)c(C#N)s3)c2cc1OC [GSK-319347A]
- IC50 [1]: > 5000 nM
- IC50 [2]: > 5000 nM
- IC50 [3]: > 5000 nM
- IC50 [4]: > 5000 nM
- IC50 [5]: > 5000 nM
- IC50 [6]: > 5000 nM
- IC50 [7]: > 5000 nM
- IC50 [8]: > 5000 nM
